In patent US11130752B2, “Aminopyrimidine compound” (Cardurion Pharmaceuticals, LLC, priority 2018, dated 2021):

Legend:
[1] = system: phospholamban (Thr17, PLN) phosphorylation, cardiac CaMKII; assay: In vivo cardiac CaMKII inhibition (oral administration), P-PLN Western blot; conditions: male CD (SD) IGS rat left ventricle, 30 mg/kg p.o., 4 hr after administration, in comparison with vehicle-treated group, read-out: Reduction rate of P-PLN
Method: Evaluation of In Vivo Cardiac CaMKII Inhibition (Oral Administration)
To evaluate potency of test compounds to inhibit cardiac CaMKII kinase in vivo, phosphorylation levels of CaMKII-specific sites of phospholamban (Thr17, PLN) were measured in the heart of rats administered orally with test compounds.
Test compounds were suspended in 0.5% [w/v]methylcellulose/water solution and administered (30 mg/kg) to male CD (SD) IGS rat (6-8 weeks old, n=4) by the p.o. route (5 mL/kg). At 4 hours after the administration, rats were sacrificed and the hearts were harvested. After washing the isolated hearts with ice-cold saline, connective tissues were removed on ice, and the isolated left ventricle were frozen into liquid nitrogen gas and stored at −80° C.
The left ventricle samples were homogenized in RIPA-buffer containing phosphatase inhibitors and protease inhibitors. Samples were analyzed by Western blotting using anti-P-PLN (Thr17, Santa Cruz Biotechnology, sc-17024-R) antibody. The band intensities were quantified using an imaging system and were normalized relative to the vehicle-treated group.

[2] = biological target: T1, human CaMKIIδ (Homo sapiens, UniProt Q13557); assay: In vitro CaMKII inhibitory activity (binding assay, TR-FRET); conditions: activity ranks
T1 construct: Full-length, glutathione-S-transferase(GST)-tagged, human CaMKIIδ was purchased from Carna Biosciences; purchased Carna Biosciences (CaMKIIδ); Wako Pure Chemical Industries (calmodulin) 02-111
How it was run: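 TR-FRET displacement of a BODIPY probe (300 nM) from 0.5 nM full-length GST-tagged human CaMKIIδ, with Tb-anti-GST, calmodulin and 1 mM CaCl2 in pH 7.6 HEPES/MgCl2 buffer. Read after 1 hr at room temperature over an eight-point 4-fold series. IC50 by logistic fit, with 3 μM parent compound as the 100% control.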

[3] = system: HepG2 cells; assay: In vitro cytotoxicity (cellular ATP content, CellTiter-Glo); format: cell-based; conditions: 33 μM, 72 hr incubation
Method: Evaluation of In Vitro Cytotoxicity
To evaluate in vitro cytotoxicity of test compounds, % ATP reduction was determined in the presence of 33 μM of each test compound after 72 hr incubation.
HepG2 cells were seeded in DMEM (Invitrogen) containing 10% FBS (Corning)+glucose (4.5 g/L) for 24 hr to allow cell adhesion. For compound treatments, compounds were diluted in DMSO and the media, followed by added to the wells (24 hr after the cell seeding) to obtain the desired final concentration (33 μM, n=2). The final DMSO concentration was 1%. After 72 hr, cellular ATP contents were measured using CellTiter-Glo Luminescent Cell Viability Assay (Promega). The % ATP reduction was determined by comparing the ATP contents in the absence and the presence of test compounds.

[4] = Table 1, GST-tagged human CaMKIIδ
[5] = Table 4, GST-tagged human CaMKIIδ

## CCOCCOc1nn([C@H]2CC[C@H](N3[C@@H]4CC[C@H]3COC4)CC2)cc1Nc1ncc(-c2ccc(C#N)c(O[C@@H](C)Cn3cnnn3)c2)cn1 [Example 12, 2-(((S)-1-(1H-tetrazol-1-yl)propan-2-yl)oxy)-4-(2-((1-((1r,4r)-4-((1R,5S)-3-oxa-8-azabicyclo[3.2.1]octan-8-yl)cyclohexyl)-3-(2-ethoxyethoxy)-1H-pyrazol-4-yl)amino)pyrimidin-5-yl)benzonitrile]
[1]
  inhibition in vivo at 30 mg/kg: > 30%
[2]; [4]
  IC50: < 0.01 µM

## COCCCOc1nn([C@H]2CC[C@H](N3[C@@H]4CC[C@H]3COC4)CC2)cc1Nc1ncc(-c2ccc(C#N)c(O[C@@H](C)Cn3cnnn3)c2)cn1 [Example 30, 2-(((S)-1-(1H-tetrazol-1-yl)propan-2-yl)oxy)-4-(2-((1-((1r,4r)-4-((1R,5S)-3-oxa-8-azabicyclo[3.2.1]octan-8-yl)cyclohexyl)-3-(3-methoxypropoxy)-1H-pyrazol-4-yl)amino)pyrimidin-5-yl)benzonitrile]
[1]
  inhibition in vivo at 30 mg/kg: > 30%
[2]; [4]
  IC50: < 0.01 µM

## CCOCCCOc1nn([C@H]2CC[C@H](N3CCOCC3)CC2)cc1Nc1ncc(-c2ccc(C#N)c(O[C@@H](C)Cn3cnnn3)c2)cn1 [Example 33, 2-(((S)-1-(1H-tetrazol-1-yl)propan-2-yl)oxy)-4-(2-((3-(3-ethoxypropoxy)-1-((1r,4r)-4-morpholinocyclohexyl)-1H-pyrazol-4-yl)amino)pyrimidin-5-yl)benzonitrile]
[1]
  inhibition in vivo at 30 mg/kg: > 30%
[2]; [4]
  IC50: < 0.01 µM

## CCOCCCOc1nn([C@H]2CC[C@H](N3[C@@H]4CC[C@H]3COC4)CC2)cc1Nc1ncc(-c2ccc(C#N)c(O[C@@H](C)Cn3cnnn3)c2)cn1 [Example 36, 2-(((S)-1-(1H-tetrazol-1-yl)propan-2-yl)oxy)-4-(2-((1-((1r,4r)-4-((1R,5S)-3-oxa-8-azabicyclo[3.2.1]octan-8-yl)cyclohexyl)-3-(3-ethoxypropoxy)-1H-pyrazol-4-yl)amino)pyrimidin-5-yl)benzonitrile]
[1]
  inhibition in vivo at 30 mg/kg: > 30%
[2]; [4]
  IC50: < 0.01 µM

## COCCOCCOc1nn([C@H]2CC[C@H](N3C[C@@H](C)O[C@@H](C)C3)CC2)cc1Nc1ncc(-c2ccc(C#N)c(O[C@@H](C)Cn3cnnn3)c2)cn1.Cl [Example 241, 2-(((S)-1-(1H-tetrazol-1-yl)propan-2-yl)oxy)-4-(2-((1-((1r,4r)-4-((2S,6R)-2,6-dimethylmorpholino)cyclohexyl)-3-(2-(2-methoxyethoxy)ethoxy)-1H-pyrazol-4-yl)amino)pyrimidin-5-yl)benzonitrile hydrochloride]
[2]; [4]
  IC50: < 0.01 µM
[3]
  % ATP reduction: −2%

## C[C@@H]1CN([C@H]2CC[C@H](n3cc(Nc4ncc(-c5ccc(C#N)c(O[C@@H](C)Cn6cnnn6)c5)cn4)c(OCCC4COC4)n3)CC2)C[C@H](C)O1 [Example 477, 2-(((S)-1-(1H-tetrazol-1-yl)propan-2-yl)oxy)-4-(2-((1-((1r,4r)-4-((2S,6R)-2,6-dimethylmorpholino)cyclohexyl)-3-(2-(oxetan-3-yl)ethoxy)-1H-pyrazol-4-yl)amino)pyrimidin-5-yl)benzonitrile]
[2]; [5]
  IC50: < 0.01 µM
[3]
  % ATP reduction: 9%

## C[C@@H]1CN([C@H]2CC[C@H](n3cc(Nc4ncc(-c5ccc(Cl)c(O[C@@H](C)Cn6cnnn6)c5)cn4)c(OCCC(C)(C)O)n3)CC2)C[C@H](C)O1 [Example 486, 4-((4-((5-(3-(((S)-1-(1H-tetrazol-1-yl)propan-2-yl)oxy)-4-chlorophenyl)pyrimidin-2-yl)amino)-1-((1r,4r)-4-((2S,6R)-2,6-dimethylmorpholino)cyclohexyl)-1H-pyrazol-3-yl)oxy)-2-methylbutan-2-ol]
[1]
  inhibition in vivo at 30 mg/kg: > 30%
[2]; [5]
  IC50: < 0.01 µM

## COCCOCCCOc1nn([C@H]2CC[C@H](N3C[C@@H](C)O[C@@H](C)C3)CC2)cc1Nc1ncc(-c2ccc(Cl)c(O[C@@H](C)Cn3cnnn3)c2)cn1 [Example 487, 5-(3-(((S)-1-(1H-tetrazol-1-yl)propan-2-yl)oxy)-4-chlorophenyl)-N-(1-((1r,4r)-4-((2S,6R)-2,6-dimethylmorpholino)cyclohexyl)-3-(3-(2-methoxyethoxy)propoxy)-1H-pyrazol-4-yl)pyrimidin-2-amine]
[1]
  inhibition in vivo at 30 mg/kg: > 30%
[2]; [5]
  IC50: < 0.01 µM

## COCCCOc1nn([C@H]2CC[C@H](N3C[C@@H](C)O[C@@H](C)C3)CC2)cc1Nc1ncc(-c2ccc(Cl)c(O[C@@H](C)Cn3cnnn3)c2)cn1 [Example 489, 5-(3-(((S)-1-(1H-tetrazol-1-yl)propan-2-yl)oxy)-4-chlorophenyl)-N-(1-((1r,4r)-4-((2S,6R)-2,6-dimethylmorpholino)cyclohexyl)-3-(3-methoxypropoxy)-1H-pyrazol-4-yl)pyrimidin-2-amine]
[1]
  inhibition in vivo at 30 mg/kg: > 30%
[2]; [5]
  IC50: < 0.01 µM

## C[C@@H](Cn1cnnn1)Oc1cc(-c2cnc(Nc3cn([C@H]4CC[C@H](N5CCOCC5)CC4)nc3OCCCn3cncn3)nc2)ccc1Cl [Example 508, N-(3-(3-(1H-1,2,4-triazol-1-yl)propoxy)-1-((1r,4r)-4-morpholinocyclohexyl)-1H-pyrazol-4-yl)-5-(3-(((S)-1-(1H-tetrazol-1-yl)propan-2-yl)oxy)-4-chlorophenyl)pyrimidin-2-amine]
[2]; [5]
  IC50: < 0.01 µM

## C[C@@H](Cn1cnnn1)Oc1cc(-c2cnc(Nc3cn([C@H]4CC[C@H](N5CCOCC5)CC4)nc3OCc3ncccn3)nc2)ccc1Cl [Example 509, 5-(3-(((S)-1-(1H-tetrazol-1-yl)propan-2-yl)oxy)-4-chlorophenyl)-N-(1-((1r,4r)-4-morpholinocyclohexyl)-3-(pyrimidin-2-ylmethoxy)-1H-pyrazol-4-yl)pyrimidin-2-amine]
[2]; [5]
  IC50: 0.01 to 0.1 µM

## C[C@@H](Cn1cnnn1)Oc1cc(-c2cnc(Nc3cn([C@H]4CC[C@H](N5CCOCC5)CC4)nc3OCCc3cccnc3)nc2)ccc1Cl [Example 510, 5-(3-(((S)-1-(1H-tetrazol-1-yl)propan-2-yl)oxy)-4-chlorophenyl)-N-(1-((1r,4r)-4-morpholinocyclohexyl)-3-(2-(pyridin-3-yl)ethoxy)-1H-pyrazol-4-yl)pyrimidin-2-amine]
[2]; [5]
  IC50: < 0.01 µM

## COCCOCCOCCOc1nn([C@H]2CC[C@H](N3CCOCC3)CC2)cc1Nc1ncc(-c2ccc(Cl)c(O[C@@H](C)Cn3cnnn3)c2)cn1 [Example 511, 5-(3-(((S)-1-(1H-tetrazol-1-yl)propan-2-yl)oxy)-4-chlorophenyl)-N-(3-(2-(2-(2-methoxyethoxy)ethoxy)ethoxy)-1-((1r,4r)-4-morpholinocyclohexyl)-1H-pyrazol-4-yl)pyrimidin-2-amine]
[2]; [5]
  IC50: 0.01 to 0.1 µM

## [2H]C([2H])([2H])OCCCOc1nn([C@H]2CC[C@H](N3CCOCC3)CC2)cc1Nc1ncc(-c2ccc(Cl)c(O[C@@H](C)Cn3cnnn3)c2)cn1 [Example 512, 5-(3-(((S)-1-(1H-tetrazol-1-yl)propan-2-yl)oxy)-4-chlorophenyl)-N-(3-(3-(methoxy-d3)propoxy)-1-((1r,4r)-4-morpholinocyclohexyl)-1H-pyrazol-4-yl)pyrimidin-2-amine]
[2]; [5]
  IC50: < 0.01 µM

## C[C@@H](Cn1cnnn1)Oc1cc(-c2cnc(Nc3cn([C@H]4CC[C@H](N5CCOCC5)CC4)nc3OCCn3cccn3)nc2)ccc1Cl [Example 513, N-(3-(2-(1H-pyrazol-1-yl)ethoxy)-1-((1r,4r)-4-morpholinocyclohexyl)-1H-pyrazol-4-yl)-5-(3-(((S)-1-(1H-tetrazol-1-yl)propan-2-yl)oxy)-4-chlorophenyl)pyrimidin-2-amine]
[2]; [5]
  IC50: < 0.01 µM
